Source: patent US20250000843A1, “LIGNAN-INSPIRED COMPOUNDS, METHODS OF MAKING, AND USING THEREOF” (IOWAIBO, INC., priority 2023, published 2025)

Tests used:
[1] = molecular target: telomerase (Homo sapiens, UniProt O14746); experiment: Q-TRAP telomerase activity in MCF7 breast cancer cells; type: cell-based; parameters: allow the enzymatic addition of telomeric DNA repeats by endogenous telomerase; endogenous in cells
[2] = system: PC3, a human prostate cancer cell line; experiment: MTT toxicity assay in PC3 prostate cancer cells; type: cell-based
Procedure: Toxicity of the dibenzyl butyl lactone derivative (3-[(3,4-dimethoxyphenyl)cyclopentyl], 4-[(3-hydroxyphenol)methyl]oxolan-2-one) in breast cancer cells was evaluated using MTT assay. The MTT toxicity test is a colorimetric assay to measure cells' metabolic activity by serving as a substrate of cellular enzymes that reduce the tetrazolium orange dye, MTT (3-(4,5-Dimethylthiazol-2-yl)-2,5-diphenyltetrazolium bromide) to its insoluble, formazan, giving a purple color. The rate of conversion is directly proportional to cells' mitochondrial metabolic activity via NAD (P) H-dependent cellular oxidoreductase enzymes and serves as a surrogate marker of cell viability.
Cells previously expanded were seeded in 96 well plates at 1.9×10^5 and 9.6×10^4 cells/plate for 24- and 72-hours treatment respectively. This concentration is known to show the best window for the MTT assay, with better sensitivity and low variability.
5 mg of powdered enterolactone, dibenzyl butyl lactone derivative enantiomer A, and dibenzyl butyl lactone derivative enantiomer B were dissolved in 500 μl of DMSO at room temperature. Eight-point curves, ⅓ dilutions (highest concentration 125 μM), were prepared.
Twenty-four hours following the seeding process, the cells were washed once with phosphate buffered saline (PBS) and treated with the respective compounds in cell culture media. Each condition was tested in triplicates. For positive and negative controls, 8 mM methyl methane sulfonate (MMS) and DMSO 100% were used respectively.
Following compound addition, the plates were incubated for 24 and 72 hours. After the treatment period, cells were washed twice with PBS and media was replaced with MTT reagent at 0.5 mg/ml in Dulbecco's modified Eagle medium (DMEM) without phenol red. The plates were gently shaken and incubated for 4 hours. After the incubation the medium was removed and replaced by DMSO. The plates were gently shaken to solubilize the formazan crystals. Absorbance was measured using an Envision multiplate reader at a wavelength of 570 nm.
Toxicity of the dibenzyl butyl lactone derivative (3-[(3,4-dimethoxyphenyl)cyclopentyl], 4-[(3-hydroxyphenol)methyl]oxolan-2-one) in prostate cancer cells was evaluated using MTT assay. The same methods as those used in Example 2 were employed, except the cell line used was PC3, a human prostate cancer cell line, and cell cultures were established in Kaighn's modification of Ham's […] medium.
MTT assay results are shown in Tables 16-21 and expressed as the percentage of cell death after treatment.

telomerase, sequence (O14746 whole entry): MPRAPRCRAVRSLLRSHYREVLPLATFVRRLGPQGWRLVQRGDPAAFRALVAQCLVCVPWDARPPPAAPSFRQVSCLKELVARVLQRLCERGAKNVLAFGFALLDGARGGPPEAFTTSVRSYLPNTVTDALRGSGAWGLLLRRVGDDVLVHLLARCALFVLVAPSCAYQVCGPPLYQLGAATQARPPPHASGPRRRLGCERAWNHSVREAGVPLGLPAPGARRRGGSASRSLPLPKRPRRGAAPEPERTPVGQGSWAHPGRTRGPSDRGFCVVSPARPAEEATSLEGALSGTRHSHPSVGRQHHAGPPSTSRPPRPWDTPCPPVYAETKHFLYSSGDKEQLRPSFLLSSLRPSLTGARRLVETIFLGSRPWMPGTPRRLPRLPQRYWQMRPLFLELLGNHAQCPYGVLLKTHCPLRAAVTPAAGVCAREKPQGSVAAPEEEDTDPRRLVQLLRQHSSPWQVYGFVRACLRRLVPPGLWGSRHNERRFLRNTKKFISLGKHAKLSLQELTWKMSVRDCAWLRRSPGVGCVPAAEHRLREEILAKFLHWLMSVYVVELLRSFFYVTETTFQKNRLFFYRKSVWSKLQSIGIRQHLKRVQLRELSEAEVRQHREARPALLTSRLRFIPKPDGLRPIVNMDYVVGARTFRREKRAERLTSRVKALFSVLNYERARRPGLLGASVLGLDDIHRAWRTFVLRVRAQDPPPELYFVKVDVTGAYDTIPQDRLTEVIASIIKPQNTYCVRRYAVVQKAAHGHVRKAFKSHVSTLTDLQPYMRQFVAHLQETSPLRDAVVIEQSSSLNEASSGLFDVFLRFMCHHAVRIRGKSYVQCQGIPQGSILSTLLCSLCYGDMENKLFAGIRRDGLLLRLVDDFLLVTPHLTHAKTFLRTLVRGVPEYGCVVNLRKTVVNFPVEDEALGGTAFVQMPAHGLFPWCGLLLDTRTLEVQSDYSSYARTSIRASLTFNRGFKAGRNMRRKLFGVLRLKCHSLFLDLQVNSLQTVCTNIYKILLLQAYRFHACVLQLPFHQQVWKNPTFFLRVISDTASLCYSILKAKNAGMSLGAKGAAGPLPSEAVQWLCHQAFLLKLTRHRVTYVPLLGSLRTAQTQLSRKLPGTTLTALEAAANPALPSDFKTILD
telomerase, sequence (O60832 whole entry partner): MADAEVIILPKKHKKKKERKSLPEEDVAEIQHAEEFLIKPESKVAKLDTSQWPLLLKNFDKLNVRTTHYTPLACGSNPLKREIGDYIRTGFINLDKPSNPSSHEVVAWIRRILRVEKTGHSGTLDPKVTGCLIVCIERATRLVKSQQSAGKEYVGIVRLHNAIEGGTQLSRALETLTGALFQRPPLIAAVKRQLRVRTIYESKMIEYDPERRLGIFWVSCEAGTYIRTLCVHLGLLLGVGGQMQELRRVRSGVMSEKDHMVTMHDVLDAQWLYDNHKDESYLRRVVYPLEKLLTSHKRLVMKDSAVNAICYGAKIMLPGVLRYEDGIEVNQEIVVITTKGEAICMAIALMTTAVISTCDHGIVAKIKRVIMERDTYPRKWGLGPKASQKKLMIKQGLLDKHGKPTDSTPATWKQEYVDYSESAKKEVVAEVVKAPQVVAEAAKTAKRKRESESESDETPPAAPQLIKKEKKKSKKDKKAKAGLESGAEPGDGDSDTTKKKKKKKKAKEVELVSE
telomerase, sequence (Q9NPE3 whole entry partner): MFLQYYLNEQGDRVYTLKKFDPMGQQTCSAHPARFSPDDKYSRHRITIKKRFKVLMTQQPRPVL
telomerase, sequence (Q9NX24 whole entry partner): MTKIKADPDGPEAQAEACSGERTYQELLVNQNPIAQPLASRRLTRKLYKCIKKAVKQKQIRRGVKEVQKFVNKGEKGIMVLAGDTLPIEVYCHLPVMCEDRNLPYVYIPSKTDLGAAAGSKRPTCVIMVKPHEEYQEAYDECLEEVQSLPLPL
telomerase, sequence (Q9NY12 whole entry partner): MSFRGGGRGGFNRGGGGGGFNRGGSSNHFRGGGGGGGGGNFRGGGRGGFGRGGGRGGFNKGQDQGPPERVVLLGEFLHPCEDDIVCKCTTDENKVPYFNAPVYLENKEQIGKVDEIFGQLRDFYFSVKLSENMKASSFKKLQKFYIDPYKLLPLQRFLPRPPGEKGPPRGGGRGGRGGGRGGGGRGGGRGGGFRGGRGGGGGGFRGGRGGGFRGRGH
telomerase, sequence (Q9BUR4 whole entry partner): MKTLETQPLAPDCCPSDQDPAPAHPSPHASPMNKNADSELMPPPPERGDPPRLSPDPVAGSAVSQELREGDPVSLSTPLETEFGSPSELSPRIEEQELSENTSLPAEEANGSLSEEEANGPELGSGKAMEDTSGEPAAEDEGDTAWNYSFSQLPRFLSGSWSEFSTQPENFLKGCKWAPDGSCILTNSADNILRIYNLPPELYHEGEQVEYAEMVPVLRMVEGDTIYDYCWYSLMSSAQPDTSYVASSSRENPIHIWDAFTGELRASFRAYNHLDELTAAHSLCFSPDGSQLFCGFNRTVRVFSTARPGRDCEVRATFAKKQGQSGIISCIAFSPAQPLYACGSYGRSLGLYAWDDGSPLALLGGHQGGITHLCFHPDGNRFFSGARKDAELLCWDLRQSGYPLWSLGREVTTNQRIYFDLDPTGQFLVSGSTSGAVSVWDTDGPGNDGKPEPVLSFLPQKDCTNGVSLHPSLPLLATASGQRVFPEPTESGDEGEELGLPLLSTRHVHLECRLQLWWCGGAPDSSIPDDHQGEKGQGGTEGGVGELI

## O=C1OCC(Cc2ccc3c(c2)OCO3)/C1=C\c1cccc(O)c1 (single isomer, unassigned) [Enantiomer A, 3-[(3,4-dimethoxyphenyl)cyclopentyl], 4-[(3-hydroxyphenol)methyl]oxolan-2-one]
[1]; MCF7, 2.5 μM, 24 Hours
  Telomerase Activity RTA (%): 115.47%
[1]; MCF7, 2.5 μM, 48 Hours
  Telomerase Activity RTA (%): 49.73%
[1]; MCF7, 2.5 μM, 72 Hours
  Telomerase Activity RTA (%): 15.70%
[1]; MCF7, 5 μM, 24 Hours
  Telomerase Activity RTA (%): 35.54%
[1]; MCF7, 5 μM, 48 Hours
  Telomerase Activity RTA (%): 29.14%
[1]; MCF7, 5 μM, 72 Hours
  Telomerase Activity RTA (%): 14.77%
[1]; MCF7, 10 μM, 24 Hours
  Telomerase Activity RTA (%): 40.24%
[1]; MCF7, 10 μM, 48 Hours
  Telomerase Activity RTA (%): 28.47%
[1]; MCF7, 10 μM, 72 Hours
  Telomerase Activity RTA (%): 15.87%
[1]; MCF7, 20 μM, 24 Hours
  Telomerase Activity RTA (%): 25.50%
[1]; MCF7, 20 μM, 48 Hours
  Telomerase Activity RTA (%): 41.20%
[1]; MCF7, 20 μM, 72 Hours
  Telomerase Activity RTA (%): 5.82%
[1]; MCF7, 40 μM, 24 Hours
  Telomerase Activity RTA (%): 62.53%
[1]; MCF7, 40 μM, 48 Hours
  Telomerase Activity RTA (%): 36.82%
[1]; MCF7, 40 μM, 72 Hours
  Telomerase Activity RTA (%): 0.86%
[1]; MCF7, 24 h
  IC50: ~2490 nM
[1]; MCF7, 24 hours
  telomerase activity levels of treated groups compared to control: lower telomerase activity levels compared to control
[1]; MCF7, 24 hours, 5 μM
  Significance of RTA difference vs. control: YES (*)
[1]; MCF7, 24 hours, 10 μM
  Significance of RTA difference vs. control: YES (*)
[1]; MCF7, 24 hours, 20 μM
  Significance of RTA difference vs. control: YES (*)
[1]; MCF7, 24 hours, 40 μM
  Significance of RTA difference vs. control: YES (*)
[1]; MCF7, 48 h
  IC50: 2230 nM
[1]; MCF7, 48 hours
  telomerase activity levels of treated groups compared to control: lower telomerase activity levels compared to control
[1]; MCF7, 48 hours, 5 μM
  Significance of RTA difference vs. control: YES (*)
[1]; MCF7, 48 hours, 10 μM
  Significance of RTA difference vs. control: YES (**)
[1]; MCF7, 48 hours, 40 μM
  Significance of RTA difference vs. control: YES (*)
[1]; MCF7, 72 h
  IC50: 19800 nM
[1]; MCF7, 72 hours
  telomerase activity levels of treated groups compared to control: groups treated with the two highest concentrations presented further lower RTA levels
[1]; MCF7, 72 hours, 40 μM
  Significance of RTA difference vs. control: YES (**)
[1]; MCF7 breast cancer cells
  telomerase inhibition effect: exhibit a telomerase inhibition effect
[2]; PC3, 24 hours, 0.06 μM
  Cell death #1 (%): −10.92%
  Cell death #2 (%): −13.82%
  Cell death #3 (%): −11.02%
  Cell death (%) MEAN: −11.92%
[2]; PC3, 24 hours, 0.17 μM
  Cell death #1 (%): −27.17%
  Cell death #2 (%): −17.50%
  Cell death #3 (%): −8.79%
  Cell death (%) MEAN: −17.82%
[2]; PC3, 24 hours, 0.51 μM
  Cell death #1 (%): −2.70%
  Cell death #2 (%): −15.18%
  Cell death #3 (%): −10.44%
  Cell death (%) MEAN: −9.44%
[2]; PC3, 24 hours, 1.54 μM
  Cell death #1 (%): −29.20%
  Cell death #2 (%): −24.37%
  Cell death #3 (%): −23.78%
  Cell death (%) MEAN: −25.78%
[2]; PC3, 24 hours, 4.63 μM
  Cell death #1 (%): −17.98%
  Cell death #2 (%): −21.37%
  Cell death #3 (%): −15.27%
  Cell death (%) MEAN: −18.21%
[2]; PC3, 24 hours, 13.89 μM
  Cell death #1 (%): −26.49%
  Cell death #2 (%): −20.40%
  Cell death #3 (%): −18.56%
  Cell death (%) MEAN: −21.82%
[2]; PC3, 24 hours, 41.67 μM
  Cell death #1 (%): −6.18%
  Cell death #2 (%): −0.76%
  Cell death #3 (%): −12.85%
  Cell death (%) MEAN: −6.60%
[2]; PC3, 24 hours, 125.00 μM
  Cell death #1 (%): 32.42%
  Cell death #2 (%): 28.74%
  Cell death #3 (%): 33.00%
  Cell death (%) MEAN: 31.39%
[2]; PC3, 72 hours, 0.06 μM
  Cell death #1 (%): −39.43%
  Cell death #2 (%): −40.43%
  Cell death #3 (%): −33.95%
  Cell death (%) MEAN: −37.94%
[2]; PC3, 72 hours, 0.17 μM
  Cell death #1 (%): −43.42%
  Cell death #2 (%): −40.55%
  Cell death #3 (%): −38.31%
  Cell death (%) MEAN: −40.76%
[2]; PC3, 72 hours, 0.51 μM
  Cell death #1 (%): −63.73%
  Cell death #2 (%): −69.58%
  Cell death #3 (%): −63.23%
  Cell death (%) MEAN: −65.51%
[2]; PC3, 72 hours, 1.54 μM
  Cell death #1 (%): −46.91%
  Cell death #2 (%): −52.39%
  Cell death #3 (%): −53.51%
  Cell death (%) MEAN: −50.94%
[2]; PC3, 72 hours, 4.63 μM
  Cell death #1 (%): −76.31%
  Cell death #2 (%): −66.59%
  Cell death #3 (%): −54.63%
  Cell death (%) MEAN: −65.85%
[2]; PC3, 72 hours, 13.89 μM
  Cell death #1 (%): −45.54%
  Cell death #2 (%): −47.91%
  Cell death #3 (%): −30.21%
  Cell death (%) MEAN: −41.22%
[2]; PC3, 72 hours, 41.67 μM
  Cell death #1 (%): 9.78%
  Cell death #2 (%): 23.24%
  Cell death #3 (%): 14.02%
  Cell death (%) MEAN: 15.68%
[2]; PC3, 72 hours, 125.00 μM
  Cell death #1 (%): 75.56%
  Cell death #2 (%): 74.94%
  Cell death #3 (%): 74.82%
  Cell death (%) MEAN: 75.11%
[2]; PC3, at higher concentrations, 24 hours and 72 hours post-treatment
  prostate cancer cell death as compared to enterolactone: increased prostate cancer cell death as compared to enterolactone
